Experimental findings from patent publication US20140206615A1, “GLP-1 AGONIST AND CARDIOVASCULAR COMPLICATIONS” (NOVO NORDISK A/S, priority 2002, published 2014) are described below.

In the experiment the test system is BNP in heart tissue. Description: BNP mRNA and protein levels in cardiac biopsies of STZ-treated pigs (real-time PCR, RIA). It is filed as in vivo, pig. Particulars: streptozotocin (STZ)-treated pigs; 3.3 μg/kg s.c. once daily for 4 weeks; right atrial, left atrial and left ventricular biopsies; FIG. 1. As to the method: Hearts from 12 streptozotocin (STZ)-treated pigs were collected. The pigs were treated with STZ 2 weeks prior to dosing with either the GLP-1 derivative Arg^34, Lys^26(N^ε-(γ-Glu(N^α-hexadecanoyl)))-GLP-1(7-37) (NN2211) for 4 weeks, dose 3.3 μg/kg s.c. once daily, or vehicle. STZ-treated pigs were either hyperglycemic or glucose intolerant and had impaired insulin secretion upon oral glucose tolerance tests. BNP mRNA and protein levels in cardiac biopsies were measured with real-time PCR and RIA assays, respectively. BNP mRNA levels were normalized by β-actin mRNA levels.
BNP mRNA levels were similar in right atrial (RA), left atrial (LA) and in left ventricular (LV) biopsies from vehicle treated diabetic pigs (−GLP).

As to `CCCCCCCCCCCCCCCC(=O)N[C@@H](CCC(=O)NCCCC[C@H](NC(=O)[C@H](C)NC(=O)[C@H](C)NC(=O)[C@H](CCC(N)=O)NC(=O)CNC(=O)[C@H](CCC(=O)O)NC(=O)[C@H](CC(C)C)NC(=O)[C@H](Cc1ccc(O)cc1)NC(=O)[C@H](CO)NC(=O)[C@H](CO)NC(=O)[C@@H](NC(=O)[C@H](CC(=O)O)NC(=O)[C@H](CO)NC(=O)[C@@H](NC(=O)[C@H](Cc1ccccc1)NC(=O)[C@@H](NC(=O)CNC(=O)[C@H](CCC(=O)O)NC(=O)[C@H](C)NC(=O)[C@@H](N)Cc1cnc[nH]1)[C@@H](C)O)[C@@H](C)O)C(C)C)C(=O)N[C@@H](CCC(=O)O)C(=O)N[C@@H](Cc1ccccc1)C(=O)N[C@H](C(=O)N[C@@H](C)C(=O)N[C@@H](Cc1c[nH]c2ccccc12)C(=O)N[C@@H](CC(C)C)C(=O)N[C@H](C(=O)N[C@@H](CCCNC(=N)N)C(=O)NCC(=O)N[C@@H](CCCNC(=N)N)C(=O)NCC(=O)O)C(C)C)[C@@H](C)CC)C(=O)O` [NN2211, Arg^34, Lys^26(N^ε-(γ-Glu(N^α-hexadecanoyl)))-GLP-1(7-37)], the “levels of BNP (BNP mRNA normalized by β-actin mRNA) in cardiac biopsies vs vehicle” value is “significantly lower”.
